Laboratory results from US9220814B2, “Broad-spectrum antimicrobial compositions based on combinations of taurolidine and protamine and medical devices containing such compositions” (Ethicon, Inc., priority 2011, dated 2015).

Columns and labels:
[1] = cited from earlier work
[2] = tested on: Staphylococcus aureus ACTT 6538; test: in vitro MBC (minimum bactericidal concentration) study of PS:TU ratios in SST medium; format: cell-based
Procedure: The range of the ratios of the components of the synergistic antimicrobial compositions of the present invention was obtained by an in vitro MBC (minimum bactericidal concentration) study. The study was conducted in SST medium inoculated with about 10^6 CFU/ml Staphylococcus aureus ACTT 6538. In vitro efficacy was evaluated for different ratios of PS and TU combinations along with the stand alone (i.e., individual) compositions at the same concentrations as in the combination composition. After incubation at 37° C. for 24 hours, viable bacteria populations were measured by plate count. Log reduction (LR) was used as the end point for efficacy and was defined as Log CFU/ml of untreated control−Log CFU/ml of treated. The synergistic index (SI) was defined as the LR of a given combination−sum of LR of single component at the same concentration as in the combination. An SI=0 indicated additive effect, SI=1, indicated 90% more bacterial cedality, SI=2 indicated 99% more bacterial cedality, SI=3, indicated 99.9% more bacterial cedality, etc., by a combination than its stand alone components at the same usage, thus synergy.

[3] = tested on: S. aureus ACTT 6538; test: bactericidal two-dimensional concentration matrix of TU and PS in SST medium, plate count; format: cell-based, Staphylococcus aureus; settings: TU alone at 100 ppm, 37° C. 24 hours
Procedure: Concentration gradients of TU and PS were diluted in an SST medium and made into a two-dimensional matrix. Bacteria of interest were inoculated to the matrix at about 10e6 CFU/ml. S. aureus ACTT 6538 or E. coli ATCC 25922 were used for this Example 2. After incubation at 37° C. for 24 hours, viable bacteria populations were measured by plate count. Log reduction (LR) was used as the end point for efficacy and was defined as: Log CFU/ml of untreated control−Log CFU/ml of treated. Synergistic index (SI) was defined as LR of a given combination−sum of LR of single component at the same concentration as in the combination. SI=0 indicated additive effect, SI=1, indicated 90% more bacterial cedality, SI=2 indicated 99% more bacterial cedality, SI=3, indicated 99.9% more bacterial cedality, etc., by combination than its stand alone compositions at the same usage, thus synergy.

[4] = tested on: Staphylococcus aureus ACTT 6538; test: in vitro bacteria attachment assay on coated mesh discs in SST medium; format: cell-based; settings: for Log reduction: 4 hours SST 37° C.
Procedure: Taurolidine was dissolved at 4% wt./vol. in a 70% acetone 30% water vol./vol. mixture. Protamine sulfate was dissolved at 10% wt./vol. in water under warming. 50 μl of the taurolidine (TU) solution and 20 μl of the protamine (PS) solution were applied to each mesh disk using a pipette and allowed to dry at 50° C. until the majority of the liquid was gone and then stored under vacuum. First the taurolidine solution was applied, and then immediately thereafter the protamine sulfate solution was applied. The in vitro bacteria attachment assay was developed for its utility of indicating biofilm prevention potential of prototype mesh. Since bacterial attachment to a surface is the first step of biofilm formation, a surface treatment that inhibits bacterial attachment would reduce the chance of subsequent biofilm formation. The assay was conducted in SST (Serum Saline TSB) medium to mimic in vivo and clinical conditions. The formulation of SST is Tryptic Soy Broth (TSB):serum:saline in the ratio of 1:2:7. Each test article was incubated in SST inoculated with Staphylococcus aureus ACTT 6538 or Escherichia coli ATCC 25922 at about 6 Log CFU/ml. After incubation with rotation of 60 rpm for 4 hours at 37° C., the mesh discs were washed in saline 3 times to remove unattached bacteria. Bacteria attached to the mesh were collected by sonication in saline with neutralizing agent. Viable bacteria populations were measured by plate count on TSA (Tryptic Soy agar) medium contain neutralizing agents. The use of neutralizing agents in bacteria suspension and plate count medium was to eliminate any carry over antimicrobial effect from the coating. The plates were incubated at 37° C. for 24 hours. The number of attached viable bacteria was reported as CFU/disc. In accordance with Example 1, surgical mesh discs coated with different stand alone and combinations of taurolidine+protamine sulfate were prepared. Protocols of mesh coating and in vitro attachment assay as in Example 1 were used for this Example 3.

[5] = tested on: Escherichia coli ATCC 25922; test: as above; format: cell-based; settings: treated mesh surface, serum containing media
Procedure: Taurolidine was dissolved at 4% wt./vol. in a 70% acetone 30% water vol./vol. mixture. Protamine sulfate was dissolved at 10% wt./vol. in water under warming. 50 μl of the taurolidine (TU) solution and 20 μl of the protamine (PS) solution were applied to each mesh disk using a pipette and allowed to dry at 50° C. until the majority of the liquid was gone and then stored under vacuum. First the taurolidine solution was applied, and then immediately thereafter the protamine sulfate solution was applied. The in vitro bacteria attachment assay was developed for its utility of indicating biofilm prevention potential of prototype mesh. Since bacterial attachment to a surface is the first step of biofilm formation, a surface treatment that inhibits bacterial attachment would reduce the chance of subsequent biofilm formation. The assay was conducted in SST (Serum Saline TSB) medium to mimic in vivo and clinical conditions. The formulation of SST is Tryptic Soy Broth (TSB):serum:saline in the ratio of 1:2:7. Each test article was incubated in SST inoculated with Staphylococcus aureus ACTT 6538 or Escherichia coli ATCC 25922 at about 6 Log CFU/ml. […] Viable bacteria populations were measured by plate count on TSA (Tryptic Soy agar) medium contain neutralizing agents. […]

SMILES: O=S1(=O)CCN(CN2CCS(=O)(=O)NC2)CN1 [TU, bis(1,1-dioxoperhydro-1,2,4-thiadiazinyl-4)-methane]
- safe and well tolerated cumulative dose ([1]; cumulative doses): exceeding 300 g
- safe and well tolerated systemic dose ([1]; systemic doses): exceeding 40 g/day
- LR-TU ([2]; TU alone at same concentration as in PS:TU 1:1): 0
- LR-TU ([2]; TU alone at same concentration as in PS:TU 1:10): 0
- LR-TU ([2]; TU alone at same concentration as in PS:TU 1:50): 0
- LR-TU ([2]; TU alone at same concentration as in PS:TU 1:100): 0
- LR-TU ([2]; TU alone at same concentration as in PS:TU 1:200): 0
- LR-TU ([2]; TU alone at same concentration as in PS:TU 10:1): 0
- LR-TU ([2]; TU alone at same concentration as in PS:TU 50:1): 0
- Log reduction (LR) [3]: 0
- Log reduction ([4]; TU 500 μg/disc alone): 1
- Log reduction ([4]; TU 1000 μg/disc alone): 0.8
- Log reduction ([4]; TU 2000 μg/disc alone): 2
- inhibition of attachment by S. aureus (in words) ([4]; treated mesh surface, serum containing media): less inhibition than the combination
- inhibition of attachment by E. coli (in words) [5]: less inhibition than the combination
